Residues, ends and D or L forms follow the SMILES beside them.
System: drug-resistant Mycobacterium tuberculosis
Details: drug-resistant Mycobacterium tuberculosis (PAS, streptomycin, INH); peptide 10 micrograms per ml; seven days

With `C[C@@H](O)[C@H](N)C(=O)N[C@@H](CC(=O)O)C(=O)N[C@H](C(=O)N[C@@H](CO)C(=O)N[C@@H](Cc1c[nH]cn1)C(=O)N[C@@H](Cc1c[nH]cn1)C(=O)N[C@@H](CC(=O)O)C(=O)N[C@@H](CCC(N)=O)C(=O)N[C@@H](CC(=O)O)C(=O)N[C@@H](Cc1c[nH]cn1)C(=O)N1CCC[C@H]1C(=O)N[C@H](C(=O)N[C@@H](Cc1ccccc1)C(=O)N[C@@H](CC(N)=O)C(=O)O)[C@@H](C)O)[C@@H](C)O` [FGRP, Thr-Asp-Thr-Ser-His-His-Asp-Gln-Asp-His-Pro-Thr-Phe-Asn-OH] (H-TDTSHHDQDHPTFN-OH) the “% inhibition” value was 0.0%.

Reference: patent publication US20100197602A1, “USE OF FOLLICULAR GONADOTROPIN RELEASING PEPTIDE AS A THERAPEUTIC AGENT IN THE TREATMENT OF STREPTOCOCCUS PNEUMONIAE INFECTION” (priority 2007, published 2010)
